From US20060167083A1, “Therapeutic methods and compositions involving isoflav-3-ene and isoflavan structures” (priority 2002, published 2006)

How the values were obtained:
Assay type in all cases: biochemical
human topo I [1] = molecular target: T1, human topo I (Homo sapiens, UniProt P11387); assay: Topo I-mediated plasmid relaxation assay; conditions: 10 μg/ml
T1 construct: purchased Topogen (Columbus, Ohio)
T1 sequence (P11387 1-765): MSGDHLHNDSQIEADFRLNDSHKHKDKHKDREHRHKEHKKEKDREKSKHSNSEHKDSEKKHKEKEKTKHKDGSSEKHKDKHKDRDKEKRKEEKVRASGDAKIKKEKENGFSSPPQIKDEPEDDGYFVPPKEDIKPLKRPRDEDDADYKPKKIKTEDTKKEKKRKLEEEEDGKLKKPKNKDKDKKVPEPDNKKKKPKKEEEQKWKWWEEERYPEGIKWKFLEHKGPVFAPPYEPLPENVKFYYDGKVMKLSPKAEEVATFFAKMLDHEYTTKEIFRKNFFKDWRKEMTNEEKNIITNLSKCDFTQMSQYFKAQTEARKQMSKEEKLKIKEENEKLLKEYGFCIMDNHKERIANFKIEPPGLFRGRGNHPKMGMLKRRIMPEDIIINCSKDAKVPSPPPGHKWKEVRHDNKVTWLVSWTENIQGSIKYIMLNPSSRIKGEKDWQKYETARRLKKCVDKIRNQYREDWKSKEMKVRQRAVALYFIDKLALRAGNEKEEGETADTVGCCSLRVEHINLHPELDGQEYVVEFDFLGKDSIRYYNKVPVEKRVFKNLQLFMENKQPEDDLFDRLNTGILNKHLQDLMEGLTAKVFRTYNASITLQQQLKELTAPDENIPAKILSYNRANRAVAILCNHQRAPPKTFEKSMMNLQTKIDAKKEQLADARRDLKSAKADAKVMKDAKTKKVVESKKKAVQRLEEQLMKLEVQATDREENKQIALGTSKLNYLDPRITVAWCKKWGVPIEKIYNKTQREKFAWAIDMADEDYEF
Procedure: Topo I activity was determined by converting supercoiled pUC8 DNA (SC) into its relaxed from (REL).
For the determination of topoisomerase (topo) I catalytic activity, pUC8 DNA was used as the substrate in a reaction volume of 20 μl containing the following: 10 mM Tris-HCl, pH 7.9, 1 mM EDTA, 150 mM NaCl, 0.1% BSA, 0.1 mM spermidine, 5% glycerol, and 2 units of purified human topo I. The inhibitor, when applicable, was added as indicated, and the reaction was initiated by the addition of the enzyme. Reactions were carried out at 37° C. for 30 min. Gel electrophoresis was performed at 4 V/cm for 5 h in Tris-borate-EDTA buffer. For the quantitative determination of topo I activity, photographic negatives were scanned. The area representing supercoiled DNA, migrating as a single band at the bottom of the gel, was determined. The concentrations of the inhibitor that prevented 50% of the supercoiled DNA from being converted into relaxed DNA (IC50 values) were determined by averaging the data from at least three experiments.

human topo I [2] = molecular target: T1, human topo I; assay: Topo I-mediated plasmid-nicking assay; conditions: 10 and 100 μg/ml (FIG. 4 lanes 5 and 6)
Procedure: Single-strand DNA breakage was determined by converting relaxed (REL) or supercoiled (SC) pUC8 DNA to the nicked form (NIC).
Under the electrophoretic conditions that were used in the experiment shown in FIG. 4, covalently closed circular (supercoiled or relaxed) plasmid DNA migrates on the bottom of the gel. In the presence of a topo I poison that stabilises the cleavable complex, and following denaturation and degradation of the enzyme with proteinase K/SDS, the resulting nicked DNA migrates on the top of the gel.
Topo I poisons enhance topo I-mediated pUC8 DNA cleavage under the reaction conditions provided by the supplier of the enzyme (Topogen, Inc.). Briefly, 20 μl of reaction mixtures contained 10 mM Tris-HCl, pH 7.5, 1 mM EDTA, 100 mM NaCl, 1 μl of the test agent (or solvent), 0.5 μg of pUC8, and 10 units of human topo I (added last). After a 30-min incubation at 37° C., SDS-proteinase K was added, and, following a 30-min incubation at 37° C., samples were extracted with CHCl3-isopropanol and electrophoresed on a 1% agarose gel containing 0.5 μg/ml ethidium bromide. Gels were photographed, and photographic negatives were scanned.

human topo II = molecular target: T2, human topo II (Homo sapiens, UniProt P11388); assay: Topo II-mediated plasmid linearisation assay
T2 construct: purchased Topogen (Columbus, Ohio)
Procedure: FIG. 3 represents an assay for determining the effect of dehydroequol on double-stranded DNA cleavage. pRYG DNA was incubated with ten units of human topo II (lanes 2-6) in the absence (lane 1) or presence of 10, 30, or 100 μg/ml dehydroequol (lanes 2-4), or 30 μg/ml genistein (lane 5), or 10 μg/ml VP-16 (lane 6). Lane 7, linear pUC8 DNA marker. Double-strand DNA breakage was determined by converting relaxed (REL) or supercoiled (SC) pRYG DNA to the linear (LIN) form.
A linearisation assay was employed to determine if dehydroequol is a topo II poison. Double-strand breakage results in the appearance of linear DNA. […] This effect, which was evident at 10 μg/ml, peaked at 30 μg/ml.
Topo II poisons enhance topo II-mediated DNA cleavage and can be identified with the linearisation assay under the reaction conditions provided by the supplier of the enzyme (Topogen, Inc.). Briefly, 20-μl reaction mixtures contained 30 mM Tris-HCl, pH 7.6, 3 mM ATP, 15 mM β-mercaptoethanol, 8 mM MgCl2, 60 mM NaCl, 1 μl of the test agent (or solvent), 0.3 μg of pRYG, and 10 units of human topo II (added last). After a 15-min incubation at 37° C., SDS-proteinase K was added, and following a 15 min incubation at 37° C., samples were extracted with CHCl3-isopropanol and electrophoresis was performed on a 1% agarose gel containing ethidium bromide. Gels were photographed, and photographic negatives were scanned.

T2 sequence (P11388 whole entry): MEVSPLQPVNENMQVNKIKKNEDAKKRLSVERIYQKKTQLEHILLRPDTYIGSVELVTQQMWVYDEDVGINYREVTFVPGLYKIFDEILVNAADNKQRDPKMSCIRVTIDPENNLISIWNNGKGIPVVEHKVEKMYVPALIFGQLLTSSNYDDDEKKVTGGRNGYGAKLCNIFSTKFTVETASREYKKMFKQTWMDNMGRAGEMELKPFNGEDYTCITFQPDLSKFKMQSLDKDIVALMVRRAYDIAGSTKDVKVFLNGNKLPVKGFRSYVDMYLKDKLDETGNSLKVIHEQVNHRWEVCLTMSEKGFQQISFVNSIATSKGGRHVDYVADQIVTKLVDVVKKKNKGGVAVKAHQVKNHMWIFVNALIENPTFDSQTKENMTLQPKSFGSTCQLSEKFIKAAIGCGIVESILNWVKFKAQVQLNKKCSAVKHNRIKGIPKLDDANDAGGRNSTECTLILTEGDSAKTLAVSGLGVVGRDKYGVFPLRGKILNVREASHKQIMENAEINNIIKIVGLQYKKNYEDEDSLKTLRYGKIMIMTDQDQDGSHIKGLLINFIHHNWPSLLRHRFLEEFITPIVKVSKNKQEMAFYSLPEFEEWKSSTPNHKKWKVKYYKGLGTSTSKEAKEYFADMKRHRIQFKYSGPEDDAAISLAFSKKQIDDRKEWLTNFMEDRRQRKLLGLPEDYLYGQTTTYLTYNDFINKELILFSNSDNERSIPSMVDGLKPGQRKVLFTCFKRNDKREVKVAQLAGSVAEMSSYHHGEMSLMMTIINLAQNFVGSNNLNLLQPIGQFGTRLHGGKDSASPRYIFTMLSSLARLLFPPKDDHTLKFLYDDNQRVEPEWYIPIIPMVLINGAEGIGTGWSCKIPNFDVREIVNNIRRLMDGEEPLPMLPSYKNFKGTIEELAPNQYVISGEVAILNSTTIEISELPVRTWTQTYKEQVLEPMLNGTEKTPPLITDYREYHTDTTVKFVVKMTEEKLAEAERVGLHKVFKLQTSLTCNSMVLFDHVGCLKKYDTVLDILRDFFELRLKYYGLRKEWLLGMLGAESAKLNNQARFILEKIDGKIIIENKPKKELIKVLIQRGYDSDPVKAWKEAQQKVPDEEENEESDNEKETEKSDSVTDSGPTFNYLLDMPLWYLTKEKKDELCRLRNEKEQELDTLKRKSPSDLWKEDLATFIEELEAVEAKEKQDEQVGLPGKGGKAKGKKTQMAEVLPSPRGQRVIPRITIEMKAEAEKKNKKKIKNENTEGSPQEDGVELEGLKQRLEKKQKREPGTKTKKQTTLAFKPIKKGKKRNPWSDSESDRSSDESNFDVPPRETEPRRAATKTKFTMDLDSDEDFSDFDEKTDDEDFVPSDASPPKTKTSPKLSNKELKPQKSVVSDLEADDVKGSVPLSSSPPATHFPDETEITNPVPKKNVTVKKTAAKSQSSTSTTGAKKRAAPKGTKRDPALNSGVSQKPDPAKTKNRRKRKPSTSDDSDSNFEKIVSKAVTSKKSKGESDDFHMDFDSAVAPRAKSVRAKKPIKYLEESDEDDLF

`CC[C@@]1(O)C(=O)OCc2c1cc1n(c2=O)Cc2cc3ccccc3nc2-1` [Camptothecin, reference compound] was tested, and the “inhibition of topo I-catalysed relaxation of pUC8 DNA (positive control)” value (human topo I [1]) was “prevents pUC8 DNA relaxation” and the “topo I-mediated single-strand DNA breakage (nicked DNA), positive control” value (human topo I [2]) was “produced single-strand DNA cleavage”.

For `O=c1c(-c2ccc(O)cc2)coc2cc(O)cc(O)c12` [genistein, reference compound], the “concentration producing detectable (comparable) topo II-mediated linear plasmid DNA” value (human topo II) was 30 µg/mL.
